Data as given in patent publication US20120282201A1, “NOVEL COMPOUNDS” (priority 2009, published 2012).

Assay: Comparative example: solubility of BMDBM in 1:1 (w/w) mixture of C12-15 alkyl benzoate and a polymeric or solid UV-filter
Format: physicochemical
Text: Where necessary the mixture was centrifuged in order to obtain a clear supernatant.

SMILES: CCCCC(CC)COc1ccc(-c2nc(-c3ccc(OC)cc3)nc(-c3ccc(OCC(CC)CCCC)cc3O)n2)c(O)c1 (stereo not drawn) [BEMT, bis-ethylhexyloxyphenol methoxyphenyl triazine]
- Solubility of BMDBM in C12-15 alkyl benzoate/UV-filter 1:1 (200 mg BMDBM with 1000 mg of 1:1 (w/w) mixture, supernatant by HPLC after 1 month at RT): 3 wt.-%
- Δ solubility of BMDBM related to cosmetic solvent (C12-15 alkyl benzoate/UV-filter 1:1): −4 wt.-%
- Δ solubility of BMDBM (C12-15 alkyl benzoate/UV-filter 1:1 versus C12-15 alkyl benzoate): −11 wt.-%
